Test results: patent US20250313555A1, “2-SUBSTITUTED THIAZOLE AND BENZOTHIAZOLE COMPOSITIONS AND METHODS AS DUX4 INHIBITORS” (ALTAY THERAPEUTICS, INC., priority 2022, published 2025)

Assays:
Assay type in all cases: cell-based
[1] = Cell cytotoxicity 50 assay (CC50), HEK cells; conditions: human
Experimental: (§1) Cell Cytotoxicity 50 Assay Protocol (CC50) Into a deep well block (DWB), the media for the appropriate cell line (450 μL/well) was added into wells 1-10. Into DWB well 2, 10 mM of drug solution (13.5 μL) was added, followed by an additional volume of the medium (225 μL). The well was pipetted up/down four times. A portion (225 μL) was transferred to well 3, and this process was repeated up to well 10. Using a multichannel pipet, a smaller portion (50 μL/well) was removed from all wells in the DWB and then dispensed on top of the cells in each corresponding row. After adding the drug, the plate was incubated at 37° C. for 72 h. Using a multi-channel pipet, pre-warmed cell titer glo reagent (Promega) (100 μL) was added into every well. After 5 minutes, the total luminescence was measured with a luminometer. CC50 was determined with GraphPad prism template.

[2] = Cell cytotoxicity 50 assay (CC50), MB200 cells, cell titer glo; conditions: human
Experimental: as §1, with “(CC50) MB200 cells were grown until 80% confluent in F10 media supplemented with rhFGF basic (10 ng/ml), 15% fetal bovine serum, 1% penicillin streptomycin, 1% amphotericin B, and 1 μM dexamethasone. Adherent MB200 cells growing on 10 cm plate were then trypsinized with 1 ml of trypsin. Once the cells detached from the plate, F10 media (10 mL) was added, and the cells were strained through a 70 μm cell strainer. The cells were counted using a mixture of 10 μL cell suspension with 10 μL of trypan blue. Once the total number of cells were counted, a dilution of 200 k/mL was prepared, and the cells were seeded with 10 k cells/well in a 96-well plate in triplicate, making sure to avoid seeding cells in the edges of the plate to avoid edge effects. Using a multichannel pipet, the 200 k/mL cell dilution (50 μL/well) was added into wells B2-B11, C2-C11, and D2-D11 in triplicate.” for “(CC50)”

[3] = system: MBD3L2 RNA; assay: RNA isolation and qPCR to determine MBD3L2 RNA levels in FSHD cells; conditions: 48 hrs
Experimental: Protocol for RNA Isolation and qPCR to Determine MBD3L2 RNA Levels The protocol describes the process of isolating RNA from cultured cells, converting the RNA to complementary DNA (cDNA), and measuring target gene expression using a quantitative polymerase chain reaction (qPCR). The seed FSHD cells were dispensed into a six-well dish. One day after seeding, the DUX4 inhibitor (11 μM or 3.6 μM/well) was added to the cells. After another 48 hrs, the old media was removed from the cells. The cells were washed with 2 mL of warm phosphate buffered saline (PBS). The PBS was aspirated, and the cells were lysed in each well with 350 μL of RLT buffer+3.5 μL of beta-mercaptoethanol (BME). The lysates were added to fresh, RNAse-free, labeled Eppendorf tubes. The cells were then physically disrupted for […] at level 4 of the bead disrupter to ensure the release of the RNA. The RNA was collected according to standard procedures (i.e., Qiagen kit instructions) as discussed below. The RNA concentrations were standardized to […]. In a PCR tube, RNA (2 μg) in a new Eppendorf tube was diluted with RNase-free water to a 9.5 μL final volume of […] RNA. DNase was used to remove any DNA contamination. A DNase Master Mix was prepared from 1.5 μL/reaction DNase solution (1 unit/μL, Promega), 3 μL/reaction 5× RT buffer (i.e., 250 mM Tris-HCl (pH 8.3), 375 mM KCl, 15 mM MgCl2, and 500 μl 0.1 M DTT; Promega MMLV), and 1 μL/reaction RNase inhibitor solution (RNasin, 40 units/μL, Promega). The DNase Master Mix was added to the standardized RNA samples (5.5 μL/sample). The samples were mixed by agitation and briefly spun down by centrifuge. The samples were heated to 37° C. for 60 min, 80° C. for 5 min, and then cooled to 4° C. The samples were stored on ice until the addition of the next reagents. An RT Reaction Master Mix was prepared from 5 μL/reaction 5× RT buffer, 2 μL/reaction dNTP solution (2.5 mM in each nucleotide), 1 μL/reaction RNase inhibitor solution (RNasin, 40 units/μL, Promega), 1.6 μL/reaction M-MLV reverse transcriptase (200 units/μL, Promega), and 13.4 μL/reaction deionized, RNase-free water. The RT Reaction Master Mix was cooled on ice until use. A 50 μM solution of Random Primer 6 random hexanucleotides (2 μL) was added to each sample. The samples were mixed by agitation and briefly spun down by centrifuge. The samples were heated to 70° C. for 5 min and then cooled to 4° C. The RT Reaction Master Mix (23 μL) was added to each sample. The samples were mixed by agitation and briefly spun down by centrifuge. To convert the RNA to cDNA, the samples were heated to 42° C. for 60 min, 95° C. for 5 min, and then cooled to 4° C. The cDNA product mixture was diluted 5:1 with deionized water (40 μL+160 μL). The samples were run in triplicate, with a methyl-CpG-binding protein 3-like 2 (MBD3L2) target primer and a eukaryotic translation elongation factor 1-alpha (EEF1A) control primer. An qPCR Master Mix was prepared for each primer and stored on ice (4° C.) until use. The qPCR Master Mix included 10 μL/reaction SYBR Green Mix (2×) (ThermoFisher), 1 μL/reaction of the primer mix (i.e., the MBD3L2 PCR Primer mix or the EEF1A Primer mix), and 4 μL/reaction deionized, RNase-free water. To set up the qPCR plate, 15 μL of the appropriate qPCR Master Mix was added to the appropriate wells for each target/primer. After all the targets/primers have been added to the wells, 5 μL of the sample was added to the corresponding wells so that each well is 20 μL total. The plate was covered with a clear sheet. An qPCR run was set up (QuantStudio 5) with the following cycle: […]

Row | Structure (SMILES) | CC50 at 72 h [1] [µM] | CC50 at 72 h [2] [µM] | qPCR MBD3L2 Inhib at 11 µM [3]
1 | Cc1ccc2nc(-c3ccc(NC(=O)CCN4C(=O)CCC4=O)cc3)sc2c1 [Compound 2] | > 10 | 1 to 10 | 
2 | O=C(Nc1ccc(-c2nc3ccccc3s2)cc1)C1CCC(N2C(=O)CCC2=O)C1 (stereo not drawn) [Compound 94] | > 10 | > 10 | YES
3 | O=C(CCCN1C(=O)CCC1=O)Nc1ccc(-c2nc3ccccc3s2)o1 [Compound 168] | > 10 | > 10 | 
4 | CC(=O)NCCCCC(=O)Nc1ccc(-c2nc3ccccc3s2)o1 [Compound 175] | > 10 | > 10 | YES
5 | O=C(CCN1CCCC1=O)Nc1ccc(-c2nc3ccccc3s2)cc1 [Compound 18] | > 10 | > 10 | YES
6 | CC(=O)OCCCC(=O)Nc1ccc(-c2nc3ccc(C)cc3s2)cc1 [Compound 36] | 1 to 10 | > 10 | YES
7 | O=C(CCCN1CCCC1=O)NCc1ccc(-c2nc3ccccc3s2)cc1 [Compound 109] | > 10 | > 10 | YES
8 | CC(=O)N[C@H]1CC[C@H](C(=O)Nc2nc3ccccc3s2)C1 [Compound 184] | > 10 | > 10 | YES
9 | CC(=O)NC/C=C/C(=O)Nc1ccc(-c2nc3ccccc3s2)cc1 [Compound 77] | > 10 | > 10 | YES
10 | O=C(CCC1CCC(=O)N1)Nc1ccc(-c2nc3ccccc3s2)cc1 (stereo not drawn) [Compound 176] | > 10 | 1 to 10 | 
11 | CC(=O)NCCCC(=O)Nc1ccc(-c2nc3cc(F)c(F)cc3s2)cc1 [Compound 84] | > 10 | > 10 | YES
12 | CC(=O)NCCCC(=O)N(C)c1ccc(-c2nc3ccccc3s2)cc1 [Compound 142] | > 10 | > 10 | YES
13 | O=C(CCc1cocn1)Nc1ccc(-c2nc3ccccc3s2)cc1 [Compound 57] | > 10 | > 10 | 
14 | CC(=O)NCCC(=O)Nc1ccc(-c2nc3cnccc3s2)cc1 [Compound 58] | > 10 | > 10 | 
15 | CC(=O)NCCC(=O)Nc1ccc(-c2nc3cc(Cl)ccc3s2)cc1 [Compound 47] | > 10 | > 10 | 
16 | CC(=O)NCCC(=O)Nc1ccc(-c2nc3ccc(F)cc3s2)cc1 [Compound 45] | > 10 | > 10 | 
17 | O=C(CCN1C(=O)CCC1=O)Nc1ccc(-c2nc3ccccc3s2)cn1 [Compound 6] | > 10 | > 10 | 
18 | O=C(CCN1C(=O)CCC1=O)Nc1ccc(-c2nc3ccccc3s2)o1 [Compound 24] | > 10 | > 10 | 
19 | O=C(CCN1CCCC1=O)Nc1ccc(C(=O)c2nc3ccccc3s2)cc1 [Compound 50] | > 10 | > 10 | 
20 | CC(=O)NCCCC(=O)Nc1ccc(-c2ncc(-c3ccccc3)s2)cc1 [Compound 132] | > 10 | > 10 | 

Row | Structure (SMILES) | CC50 at 72 h [1] [µM] | CC50 at 72 h [2] [µM] | qPCR MBD3L2 Inhib at 11 µM [3]
21 | CC(=O)NCCC(=O)Nc1coc(-c2nc3ccccc3s2)c1 [Compound 42] | > 10 | > 10 | 
22 | CC(=O)OCCCC(=O)Nc1ccc(-c2nc3ccccc3s2)cc1 [Compound 19] | > 10 | > 10 | 
23 | O=C(CCc1ccncc1)Nc1ccc(-c2nc3ccccc3s2)cc1 [Compound 12] | > 10 | > 10 | 
24 | CC(=O)NC1CC1C(=O)Nc1ccc(-c2nc3ccccc3s2)cc1 (stereo not drawn) [Compound 100] | > 10 | > 10 | 
25 | CCOCCCC(=O)Nc1ccc(-c2nc3ccccc3s2)cc1 [Compound 3] | 1 to 10 | 1 to 10 | 
26 | CC(=O)NCCCC(=O)Nc1ccc(-c2ncc(Cl)s2)cc1 [Compound 78] | > 10 | > 10 | 
27 | O=C(CCc1ncccn1)Nc1ccc(-c2nc3ccccc3s2)cc1 [Compound 51] | > 10 | > 10 | 
28 | O=C(CCCc1cnco1)Nc1coc(-c2nc3ccccc3s2)c1 [Compound 68] | > 10 | > 10 | 
29 | CCOCCCC(=O)Nc1ccc(-c2nc3ccc(C)cc3s2)cc1 [Compound 17] | 1 to 10 | 1 to 10 | 
30 | CC(=O)CCCC(=O)Nc1ccc(-c2nc3ccc(C)cc3s2)cc1 [Compound 4] | > 10 | > 10 | 
31 | O=C(CCCc1cocn1)Nc1ccc(-c2nc3cc(F)ccc3s2)cc1 [Compound 99] | > 10 | > 10 | 
32 | CC(=O)NCCC(=O)Nc1ccc(-c2nc3ccc(C)cc3s2)cc1 [Compound 35] | > 10 | > 10 | 
33 | CC(=O)NCCCC(=O)Nc1ccc(-c2nc3ccccc3s2)cc1C [Compound 125] | > 10 | > 10 | 
34 | O=C(CCn1ccnn1)Nc1ccc(-c2nc3ccccc3s2)cc1 [Compound 48] | > 10 | > 10 | 
35 | O=C(CCCN1C(=O)CCC1=O)Nc1nc2ccccc2s1 [Compound 82] | > 10 | > 10 | 
36 | N#CCCCC(=O)Nc1ccc(-c2nc3ccccc3s2)cc1 [Compound 124] | > 10 | > 10 | 
37 | CC(=O)CCCC(=O)Nc1ccc(-c2nc3ccccc3s2)cc1 [Compound 20] | > 10 | > 10 | 
38 | O=C1CCC(=O)N1[C@H]1C[C@H](C(=O)Nc2ccc(-c3nc4ccccc4s3)cc2)C1 [Compound 96] | > 10 | > 10 | 
39 | O=C(CCCc1cnco1)Nc1ccc(-c2nc3ccccc3s2)cc1 [Compound 63] | 1 to 10 | > 10 | 
